According to patent US20090004664A1, “HCV NS3 replicon shuttle vectors” (ROCHE PALO ALTO LLC, priority 2007, published 2009):

Tests used:
Type in all cases: cell-based, HCV
[1] = test system: replicon containing patient-derived NS3 of sample TN-132 (V36M mutation in the NS3 gene); assay: Replicon phenotypic assay, patient sample TN-132; conditions: sample TN-132 carrying V36M mutation in the NS3 gene
Description: (§1) Five micrograms of DNA plasmids were linearized by Sca I restriction enzyme (Roche). After overnight digestion at 37° C., the DNA was purified using Qiagen PCR purification kit. One microgram of linearized DNA was used for the in vitro transcription using T7 Mega script kit following manufacturer's protocol (Ambion). After 2 hours of incubation at 37° C., DNase treatment was performed for 30 minutes at 37° C. to remove the DNA template. In vitro transcribed RNA was then purified using NucAway Spin Column following manufacturer's protocol (Ambion).
(§2) Cured hepatoma cell line Huh7 were cultured at 37° C. in a humidified atmosphere with 5% CO2 in Dulbecco's Modified Eagle Medium (DMEM) supplemented with Glutamax™ and 100 mg/ml sodium pyruvate (Cat# 10569-010). The medium was further supplemented with 10% (v/v) FBS (Cat# 16000-036) and 1% (v/v) penicillin/streptomycin (Cat# 15140-122). All reagents were from Invitrogen/Gibco.
(§3) Four million cured Huh7 cells were transfected with 5 μg of in vitro transcribed RNA using electroporation. […] Inhibitors were added 24 hours post-transfection in 3 fold dilutions at a final DMSO concentration of 1% and firefly luciferase reporter signal was read 72 hours after addition of inhibitors using the Luciferase Assay system (Promega, cat #E1501). […]

[2] = test system: replicon containing patient-derived NS3 TN132-6 (NS3 V36M, GT1a clinical isolate TN132); assay: Replicon phenotypic assay, replicon containing patient-derived NS3 TN132-6; conditions: Hepatitis C virus, Huh-7
Description: as §1, §2, §3

[3] = test system: replicon containing patient-derived NS3 TN132-2 (NS3 V36M, GT1a clinical isolate TN132); assay: Replicon phenotypic assay, replicon containing patient-derived NS3 TN132-2; conditions: Hepatitis C virus, Huh-7
Description: as §1, §2, §3

[4] = test system: replicon containing patient-derived NS3 TN132-1 (NS3 V36M, GT1a clinical isolate TN132); assay: Replicon phenotypic assay, replicon containing patient-derived NS3 TN132-1; conditions: Hepatitis C virus, Huh-7
Description: as §1, §2, §3

[5] = test system: Genotype-1a template NS3 shuttle vector (H77NS3) replicon; assay: Replicon phenotypic assay (transient replicon, firefly luciferase), Genotype-1a template NS3 shuttle vector; conditions: Hepatitis C virus, Huh-7; H77 NS3 replicon in cured Huh7 cells; inhibitor added 24 h post-transfection, luciferase read 72 h later
Description: as §1, §2, §3

[6] = test system: replicon containing patient-derived NS3 2209-23; assay: Replicon phenotypic assay, replicon containing patient-derived NS3 2209-23; conditions: Hepatitis C virus, Huh-7; 2209-23 replicon in cured Huh7 cells; inhibitor added 24 h post-transfection, luciferase read 72 h later
Description: as §1, §2, §3

## CCC[C@H](NC(=O)[C@@H]1[C@H]2CCC[C@H]2CN1C(=O)[C@@H](NC(=O)[C@@H](NC(=O)c1cnccn1)C1CCCCC1)C(C)(C)C)C(=O)C(=O)NC1CC1 [VX-950]
[1]
  sensitivity of sample TN-132 to the inhibitor: reduced sensitivity
[2]
  IC50: 1470 nM
[3]
  IC50: 2610 nM
[4]
  IC50: 2370 nM
[5]
  IC50: 440 nM
[6]
  IC50: 630 nM
